Consider 33 compounds from the METLIN SMRT retention time set (Domingo-Almenara et al. 2019).

The structures appear in SMILES notation.

This data set in a line: gradient 5% acetonitrile 3 min, to 50% in 2 min, to 85% in 15 min, held 3 min, 100 µL/min. To be noted: column: Zorbax Extend-C18 2.1 x 50 mm; eluents: water / acetonitrile, 0.1% formic acid. The procedure, abridged:
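The mobile phases were water and acetonitrile, each with 0.1% formic acid, pumped at 100 μL/min through a Zorbax Extend-C18 column (2.1 × 50 mm, 1.8 μm). Pure standards were injected as mixtures of ~100 molecules and detected by a quadrupole time-of-flight mass spectrometer in positive and negative ionization mode. Retention time came from computationally picked adduct peaks, each inspected by hand.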
As for `CCNC(=O)C1CCCN(C(=O)Nc2ccc(NC(=O)Nc3ccc(CC)cc3)cc2)C1` (stereo not drawn), the RP-LC retention time was 773 s. As for `COc1cccc(N2CC(NC(=O)c3ccccc3C(F)(F)F)CC2=O)c1` (stereo not drawn), the RP-LC retention time was 709 s.

For `O=C(CN1CCN(Cc2ccc(F)cc2)C1=O)NCc1ccc(F)cc1F`, the RP-LC retention time stood at 809 s. `CCOC1CCN(C(=O)NC(C)(C)C)CC1` yielded an RP-LC retention time of 700 s.

Turning to `O=C(NC1CCN(C(=O)c2cc(-c3cccc(Cl)c3)n[nH]2)CC1)c1cccs1`, the RP-LC retention time was 718 s. The figure for `CCCN1C(=O)COc2ccc(-c3noc(-c4ccc(OC)cc4OC)n3)cc21` is 1100 s; for `CCn1nccc1C(=O)Nc1cc(-c2cc3cc(OC)ccc3n2CC)[nH]n1` it is 846 s; for `CCN(C(=O)c1cc2c(=O)n(C)c(=O)n(C)c2s1)c1ccc(OC)cc1` it is 801 s.

`O=C(NCc1ccc(F)cc1)c1ccc2ncnc(N3CCCC3)c2c1`: the RP-LC retention time was determined as 646 s. Then `Cc1nc(Cn2cccc2C(=O)NCc2ccc(Br)cc2)no1`, with 942 s.

`CCCSCCCNc1nc(-c2nnc(-c3ccc(C)cc3)o2)nc2ccccc12` returned an RP-LC retention time of 1160 s. The figure for `O=C(N[C@H]1C[C@@H]2C[C@H]1N(C(=O)COc1cccc(Cl)c1)C2)c1cccnc1` is 656 s; for `Cn1cc(-c2cc3n(n2)CCC(=O)N3CC(=O)NCc2ccccc2Cl)c2ccccc21` it is 830 s; for `COc1ccc(NC(=O)N2CCC(C)(C(=O)NCc3ccc4c(c3)OCO4)CC2)c(OC)c1` it is 720 s. The figure for `COc1cc(CCC(=O)N2CCNc3ccccc3C2)cc(OC)c1OC` is 710 s. Then `O=C1CC(c2noc(-c3ccc(F)c(Cl)c3)n2)CN1c1ccc(F)cc1` (stereo not drawn), with 1070 s; and `Cc1ccc(NC(=O)Cn2cnc3nc(N4CCC(C(=O)NC5CC5)CC4)sc3c2=O)cc1F`, with 703 s; and `CS(=O)(=O)N(C1CCOCC1)C1CN(C(=O)NCCc2ccccc2)C1`, with 684 s. Consider `O=C(Nc1nnc(C2=COCCO2)o1)C1CCN(S(=O)(=O)c2cccs2)CC1`, for which the RP-LC retention time was found to be 643 s.

`CSc1cccc(NC(=O)Cn2cnc3nc(N4CCC(C(=O)NC5CC5)CC4)sc3c2=O)c1` gave an RP-LC retention time of 696 s. Take `Cc1cc(Cl)ccc1NC(=O)c1cc2c(=O)n(CC(C)C)ccc2n1C`: the RP-LC retention time worked out at 900 s. In turn, `CCOc1ccc(CNC(=O)c2snc(C(=O)NCc3ccccc3Cl)c2N)cc1OCC` gave an RP-LC retention time of 1090 s. Then `O=S(=O)(CCOc1ccccc1)NCc1ccc2c(c1)OCO2`, with 806 s. `CCN(CC)S(=O)(=O)c1ccc2c(c1)CC(C(=O)NC1CCCCCCC1)N2C(C)=O` (stereo not drawn) yielded an RP-LC retention time of 959 s. The figure for `COc1ccccc1N1CCN(CCCCNC(=O)c2ccc3ccccc3c2)CC1` is 666 s; for `O=C(Nc1ccccc1C(F)(F)F)c1cnc(-c2ccccc2)nc1-c1ccncc1` it is 915 s. The compound `CC1Oc2ccc(NC(=O)C3CCCC3)cc2CN(Cc2ccccc2F)C1=O` (stereo not drawn) gave an RP-LC retention time of 864 s.

`COc1ccc(S(=O)(=O)N2CCN=C2SCc2cccnc2)cc1` came in with an RP-LC retention time of 594 s. The figure for `CCOC(=O)C1CCN(C(=O)NCc2cccs2)CC1` is 677 s. The compound `O=C(Nc1ccc2nc3n(c(=O)c2c1)CCCCC3)C(=O)N1CCc2ccccc21` gave an RP-LC retention time of 889 s. The figure for `COC(=O)c1cc2c(=O)n(-c3cc(Cl)ccc3Cl)ccc2nc1C` is 944 s; for `CC(NC(=O)C(=O)NC1CCCCC1)C(c1cccs1)N1CCOCC1` (stereo not drawn) it is 604 s. The figure for `O=C(OCc1nc2ccccc2s1)c1ccc2c(c1)OCCO2` is 953 s.
